{"source": "patent US6682740B1", "about": "(Yeda Research and Development Co. Ltd., priority 1997, dated 2004)", "key": {"[1]": {"target": "T1, FcεRI molecules on RBL-2H3 cells (Rattus norvegicus, UniProt P12371+P13386)", "T1 construct": "targeting FcεRI molecules on RBL-2H3 cells; endogenous in cells; host or cells: RBL-2H3", "T1 sequence (P12371 24-245)": "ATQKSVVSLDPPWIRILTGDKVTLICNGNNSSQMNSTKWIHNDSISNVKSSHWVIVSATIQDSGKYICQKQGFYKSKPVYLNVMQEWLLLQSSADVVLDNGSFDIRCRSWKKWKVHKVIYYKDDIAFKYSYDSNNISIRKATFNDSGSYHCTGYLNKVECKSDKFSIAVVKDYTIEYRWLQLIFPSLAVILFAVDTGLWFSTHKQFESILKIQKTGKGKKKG", "T1 sequence (P13386 1-243)": "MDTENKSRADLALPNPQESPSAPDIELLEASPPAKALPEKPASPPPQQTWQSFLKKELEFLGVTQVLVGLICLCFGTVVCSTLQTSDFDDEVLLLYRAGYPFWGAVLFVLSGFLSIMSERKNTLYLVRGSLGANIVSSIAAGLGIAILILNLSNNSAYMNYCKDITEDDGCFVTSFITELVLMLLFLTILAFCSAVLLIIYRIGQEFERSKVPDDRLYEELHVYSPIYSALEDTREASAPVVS", "T1 sequence (P20411 19-86 partner)": "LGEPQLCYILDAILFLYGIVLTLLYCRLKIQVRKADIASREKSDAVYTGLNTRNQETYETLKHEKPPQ", "assay": "Homo-FRET between FITC-IgE and TRITC-IgE on RBL-2H3 cells (flow cytometry)", "format": "cell-based", "conditions": "dE = (E/E[control] − 1) × 100; for dE % (Dose 1): Dose 1: C3a 30 μM, C3a2 110 μM, C3a5 110 μM, C3a9 290 μM, C3a14-P 250 μM; for dE % (Dose 2): Dose 2: C3a 70 μM, C3a2 270 μM, C3a5 270 μM, C3a9 670 μM, C3a14-P 630 μM", "procedure": "The Forster-type resonance energy transfer between FITC-IgE and TRITC-IgE targeting FcεRI molecules on RBL-2H3 cells was measured (at 1:1 donor-acceptor ratio) by flow cytometry using a BectonDickinson FACStar Plus flow cytometer."}, "[2]": {"tested_on": "Ovalbumin-Sensitized Guinea Pig Model", "assay": "Anaphylactic shock in ovalbumin-sensitized guinea pig model (death, respiratory parameters)", "format": "in vivo", "conditions": "except for transient changes in respiratory parameters", "experimental": "Guinea pigs (GPs), weighing 350-400 g (from Charles River, GB) were sensitized to rabbit anti-chicken egg albumin (Sigma) by i.p. injection (0.6 mg/kg, using a solution of 1.5 mg/ml in DDW). Twenty-four hours following sensitization, GPs were challenged with inhaled aerosol of chicken ovalbumin (Sigma). The aerosol was generated from an aqueous solution of 25 mg/ml and aerosolized with air 24 l/min. Exposure duration was 1-3 min, according to the required dose. […] During the challenge the GPs were restrained in plethysmographs and their tidal volume, minute volume and respiration rate parameters were monitored. The GPs that received pretreatment with tire mast cell inhibitor C3a9 treated with aerosolized C3a9 peptide (a solution of 0.25 mg/ml, aerosolized with air 24 l/min and treated for 10 min.). The treatment ended 5 min before the challenge with OA. It is estimated that under these conditions each GP inhaled about 7 μg of the peptide. Respiratory parameters of the animals were further monitored for 10 min post challenge.\nEight GPs were tested in each group."}, "BMMC": {"tested_on": "BMMC", "assay": "Binding of FITC-labeled C3a14-P to BMMC (flow cytometry)", "parameters": "species or system mouse", "conditions": "results not shown", "from_the_text": "(§1) This supports proximity between the FcεR (IgE receptor) and the peptide."}, "RBL-2H3 cells [3]": {"tested_on": "RBL-2H3 cells", "assay": "Binding of FITC-labeled C3a14-P to RBL-2H3 cells", "parameters": "species or system rat", "conditions": "for binding to RBL-2H3 cells: various concentrations, measured after washing / flow cytometry", "procedure": "as §1\nRBL-2H3 cells were incubated with the peptide at various concentrations and binding was measured after washing the cells."}, "[4]": {"tested_on": "IgE-TRITC on RBL-2H3 cells", "assay": "FRET between C3a14-P-FITC and IgE-TRITC on RBL-2H3 cells", "format": "binding, rat"}, "RBL-2H3 cells [5]": {"tested_on": "RBL-2H3 cells", "assay": "Inhibition of antigen-induced (IgE-mediated) β-hexosaminidase secretion by RBL-2H3 cells", "format": "cell-based, rat", "conditions": "for inhibition of antigen-induced / IgE-dependent degranulation (β-hexosaminidase release): RBL-2H3 cells, result in words", "procedure": "Cells. Rat mucosal mast cells, subline RBL-2H3 (Barsumian et al, 1981) were maintained in Eagle's MEM with Earle's salts supplemented by 10% FCS, 2 mM glutamine and antibiotics in a humidified atmosphere with 7% CO2 at 37° C. Secretory Response of Mast Cells. Mediator secretion by mast cells in response to stimulation by FcεRI clustering was monitored by measuring the activity of the granular enzyme β-hexosaminidase. DNP-specific murine IgE mAb, A2 (3 μl ascites) was added to 10^6 cells in 10 ml MEM and incubated in 96-well plates (100 μl suspension/well) for 2 h. Then, monolayers were washed three times with Tyrode's buffer and stimulated with the antigen (DNP11-BSA). […] Following incubation at 37° C. for 1 h, 20 μl of supernatants were taken and incubated with 50 μl of substrate solution (1.3 mg/ml p-nitrophenyl-N-acetyl-β-D-glucosamine in 0.1 M sodium citrate, pH 4.5) at 37° C. for 45 min. The reaction was terminated by the addition of 150 μl of 0.2 M glycine, pH 10.7, and the optical density of the samples was measured at 405 nm. Results of one representative experiment out of four yielding similar results are presented as percent of the total cell content of the enzyme minus the basal secreted activity. […] Degranulation of the cells was monitored by measuring the activity of the enzyme β-hexosaminidase released into the supernatants after stimulation for 1 h at 37° C. and are presented as net percentages of the cells' total β-hexosaminidase activity."}, "[6]": {"target": "RBL-2H3 cells (rat mucosal mast cells), binding partner on the cell surface not identified", "assay": "fluorescence of washed RBL-2H3 cells, peptide dose 630 µM"}, "[7]": {"target": "RBL-2H3 cells (rat mucosal mast cells), binding partner on the cell surface not identified", "assay": "fluorescence of washed RBL-2H3 cells, peptide dose 510 µM"}, "[8]": {"target": "RBL-2H3 cells (rat mucosal mast cells), binding partner on the cell surface not identified", "assay": "fluorescence of washed RBL-2H3 cells, peptide dose 250 µM"}, "RBL-2H3 cells [9]": {"tested_on": "RBL-2H3 cells", "conditions": "earlier experiments, cited from earlier work"}}, "note": "Residues, ends and D or L forms follow the SMILES beside them. No end group written: not given here."}
{"molecule": "CC[C@H](C)[C@H](NC(=O)[C@H](Cc1ccc(O)cc1)NC(=O)[C@H](CC(N)=O)NC(=O)[C@H](CS)NC(=O)[C@H](CS)NC(=O)[C@@H](N)CC(=O)O)C(=O)N[C@H](C(=O)N[C@@H](CCCNC(=N)N)C(N)=O)[C@@H](C)O", "note": "[C3a9] (H-DCCNYITR-NH2)", "values": [{"measurement": "dE % (Dose 1)", "setting": "[1]", "value": "−64", "unit": "%"}, {"measurement": "dE % (Dose 2)", "setting": "[1]", "value": "−67", "unit": "%"}, {"measurement": "effect of the C3a9 aerosol treatment itself on GPs (respiratory parameters)", "setting": "[2]", "value": "not affected by the treatment"}]}
{"molecule": "C3a14-P-FITC: FITC-labeled peptide C3a14-P (DSSNYITR; also: FITC label, position not given here)", "values": [{"measurement": "binding to BMMC", "setting": "BMMC", "value": "showed binding"}, {"measurement": "Fluorescence Mean (w/o background)", "setting": "RBL-2H3 cells [3]; peptide dose 250 μM", "value": 25}, {"measurement": "Fluorescence Mean (w/o background)", "setting": "RBL-2H3 cells [3]; peptide dose 510 μM", "value": 74}, {"measurement": "Fluorescence Mean (w/o background)", "setting": "RBL-2H3 cells [3]; peptide dose 630 μM", "value": 157}, {"measurement": "binding to RBL-2H3 cells", "setting": "RBL-2H3 cells [3]; listed as FITC-15 labeled C3a14-P", "value": "showed binding"}, {"measurement": "binding to RBL-2H3 cells", "setting": "RBL-2H3 cells [3]; listed as FITC-Labeled C3a14-P", "value": "specific binding, but no saturation is reached"}, {"measurement": "FRET Efficiency E (%)", "setting": "[4]; cells incubated with amount 20 of C3a14-P-FITC (unit not given)", "value": 33, "unit": "%"}, {"measurement": "FRET Efficiency E (%)", "setting": "[4]; cells incubated with amount 40 of C3a14-P-FITC (unit not given)", "value": 17, "unit": "%"}, {"measurement": "FRET Efficiency E (%)", "setting": "[4]; cells incubated with amount 60 of C3a14-P-FITC (unit not given)", "value": 9, "unit": "%"}]}
{"molecule": "CNYITELRRQHARASHLGLAR [C3a2]", "values": [{"measurement": "dE % (Dose 1)", "setting": "[1]", "value": "−101", "unit": "%"}, {"measurement": "dE % (Dose 2)", "setting": "[1]", "value": "−130", "unit": "%"}, {"measurement": "inhibition of antigen-induced / IgE-dependent degranulation (β-hexosaminidase release)", "setting": "RBL-2H3 cells [5]", "value": "inhibited in a dose-dependent manner"}, {"measurement": "secretory response when only the peptide was added", "setting": "RBL-2H3 cells [5]; peptide alone, same range of concentrations, no antigen", "value": "No secretory response"}]}
{"molecule": "Cys-Cys-Asn-Tyr-Gly (CCNYG; not fully specified; printed: Cys-Cys-Asn-Tyr-Gly) [C3a13]", "values": [{"measurement": "inhibition of antigen-induced / IgE-dependent degranulation (β-hexosaminidase release)", "setting": "RBL-2H3 cells [5]", "value": "inhibit IgE-dependent degranulation of RBL-2H3 cells to a similar extent as did C3a2"}]}
{"molecule": "DSSNYIR [C3a11, Asp-Ser-Ser-Asn-Tyr-Ile-Arg]", "values": [{"measurement": "inhibition of antigen-induced / IgE-dependent degranulation (β-hexosaminidase release)", "setting": "RBL-2H3 cells [5]", "value": "inhibit IgE-dependent degranulation of RBL-2H3 cells to a similar extent as did C3a2"}]}
{"molecule": "DSSNYITR [C3a14-P]", "values": [{"measurement": "dE % (Dose 1)", "setting": "[1]", "value": "−72", "unit": "%"}, {"measurement": "dE % (Dose 2)", "setting": "[1]", "value": "−97", "unit": "%"}]}
{"molecule": "KKVFLDCCNYITELRRQHAR [C3a5]", "values": [{"measurement": "dE % (Dose 1)", "setting": "[1]", "value": "−65", "unit": "%"}, {"measurement": "dE % (Dose 2)", "setting": "[1]", "value": "−78", "unit": "%"}]}
{"molecule": "SVQLTEKRMDKVGKYPKELR [C3a1, reference compound]", "values": [{"measurement": "inhibition of antigen-induced / IgE-dependent degranulation (β-hexosaminidase release)", "setting": "RBL-2H3 cells [5]", "value": "had no effect at all"}]}
{"molecule": "DSSNYITR-NH2 (also: FITC-labeled, position of label not given here)", "note": "[FITC-labeled C3a14-P]", "values": [{"measurement": "Fluorescence Mean (w/o background)", "setting": "[6]", "value": 157}, {"measurement": "Fluorescence Mean (w/o background)", "setting": "[7]", "value": 74}, {"measurement": "Fluorescence Mean (w/o background)", "setting": "[8]", "value": 25}]}
{"molecule": "C5a: complement-derived peptide C5a (protein, UniProt P01031 678-751, looked up, C5a anaphylatoxin) C5a anaphylatoxin: TLQKKIEEIAAKYKHSVVKKCCYDGACVNNDETCEQRAARISLGPRCIKAFTECCVVASQLRANISHKDMQLGR", "values": [{"measurement": "secretory response when added alone", "setting": "RBL-2H3 cells [9]; peptide alone (Erdei et al, 1995)", "value": "none of the complement-peptides C3a and C5a triggered the secretory response"}, {"measurement": "inhibition of antigen-induced degranulation of RBL-2H3", "setting": "RBL-2H3 cells [9]; range of human C3a concentrations (Erdei et al, 1995)", "value": "had no effect at all"}]}
